Laboratory results from patent US20220313693A1, “METHODS OF TREATING HIV IN PEDIATRIC PATIENTS WITH RILPIVIRINE” (priority 2019, published 2022).
Like-named read-outs stand apart in the source and are kept apart here.

Experiments:
[1] = Intensive PK assessment of RPV at steady state, Phase II open-label trial in ARV-naive HIV-1 infected adolescents and children; details: RPV 25 mg qd multiple dose
clinical = details: human, in vivo, 25 mg, mean ± SD, RPV 25 mg qd multiple dose; for AUC(0-t): AUC24h
[2] = Adults, pooled ECHO/THRIVE, RPV 25 mg qd, N=44; cited from earlier work
[3] = adult and pediatric participants receiving abacavir in clinical studies; cited from earlier work
[4] = Adolescents (Cohort 1, ≥12 to <18 years), N=23
[5] = Children ≥6-<12 years (Cohort 2), all bodyweights, N=10, preliminary analysis
[6] = Children ≥6-<12 years (Cohort 2), ≥25 kg only, N=5, preliminary analysis

SMILES: Cc1cc(/C=C/C#N)cc(C)c1Nc1ccnc(Nc2ccc(C#N)cc2)n1 [RPV, Rilpivirine]
- C0h (predose plasma concentration), mean ± SD [1, 4]: 80.8 ± 40.4 ng/mL
- Cmin, mean ± SD [1, 4]: 57.1 ± 26.3 ng/mL
- tmax, median [range] [1, 4]: 5.00 (2.00-9.03) h
- C0h (predose plasma concentration), mean ± SD [1, 5]: 118 ± 61.5 ng/mL
- Cmin, mean ± SD [1, 5]: 77 ± 38.4 ng/mL
- C0h (predose plasma concentration), mean ± SD [1, 6]: 104 ± 57 ng/mL
- Cmin, mean ± SD [1, 6]: 74 ± 29.7 ng/mL
- tmax, median [range] [1, 6]: 4.00 (1.97-9.00) h
- AUC(0-t) (clinical; [4]): 1870 ± 717 ng·h/mL
- AUC(0-t) (clinical; [5]): 3020 ± 1610 ng·h/mL
- AUC(0-t) (clinical; [6]): 2450 ± 735 ng·h/mL
- Cmax (clinical; [5]): 182 ± 110 ng/mL
- Cmax (clinical; [6]): 136 ± 46.1 ng/mL
- AUC24h, mean ± SD [2]: 2005 ± 970 ng·h/mL
- C0h (predose plasma concentration), mean ± SD [2]: 67.6 ± 39.0 ng/mL
- Cmax, mean ± SD [2]: 134 ± 72.0 ng/mL
- Cmin, mean ± SD [2]: 53.7 ± 28.3 ng/mL

SMILES: Nc1nc(NC2CC2)c2ncn([C@H]3C=C[C@@H](CO)C3)c2n1 [abacavir]
- Participants with hypersensitivity reactions [3]: approximately 5%
